How the values were obtained:
THP-1 macrophages = test: LPS-induced cytokine production by THP-1 macrophages; format: cell-based, Human; conditions: P. aeruginosa LPS 10 ng/mL, 4 h, 37 °C, 5% CO2
Protocol: (§1) Human non-small-cell lung adenocarcinoma A549 cells (ATCC CCL-185; LGC Standards, Milan, Italy) and human monocytic THP-1 cells (ATCC TIB-202; LGC Standards) were cultured in tissue culture flasks in Dulbecco’s modified essential medium (DMEM) (Euroclone, Milan, Italy) and RPMI 1640 medium (Euroclone), respectively. Both media were supplemented with 2 mM L-glutamine (Euroclone) and 10% heat-inactivated fetal bovine serum (FBS; Euroclone). Confluent monolayers were detached from the culture flask with 0.25% trypsin/1 mM EDTA solution (Euroclone), suspended in complete culture medium and seeded into flat-bottom 96-well plates at a final density of 1 × 10^4 cells/well (A549) and 2 × 10^4 cells/well (THP-1). A549 cells were cultured for 24 h at 37 °C, 5% CO2 in order to allow adhesion and formation of semi-confluent monolayers. THP-1 cells were cultured for 3 days (37 °C, 5% CO2) in the presence of 100 nM TPA (Sigma-Aldrich, St. Louis, MO, USA) to induce their differentiation into macrophage-like cells.
The anti-inflammatory potential of lin-SB056-1 and (lin-SB056-1)2-K was assessed by evaluating their ability to reduce LPS-induced production of pro-inflammatory cytokines by A549 cells and THP-1 macrophages. […] Following incubation, cell culture supernatants were collected, filter sterilized (0.22 µm) and employed for the quantification of cytokines and the assessment of cell viability.
Different pro-inflammatory cytokines (i.e., IL-1β, IL-6, IL-8 and TNF-α) were quantified in cell culture supernatants through a bead-based multiplex immunoassay (LEGENDplex multi-analyte flow assay kit; BioLegend, San Diego, CA, USA) following manufacturer’s instructions. […] Following consecutive washing steps, the beads were resuspended in the LEGENDplex wash buffer and the samples were analyzed by flow cytometry (BD Accuri C6 flow cytometer; BD Biosciences, Mountain View, CA, United States). Data were acquired with the BD Accuri C6 software (BD Biosciences) (300 events per analyte) and analyzed with the LEGENDplex software (BioLegend). […]

A549 cells = test: Cytotoxicity (LDH release) towards A549 cells; format: cell-based, Human; conditions: LPS-stimulated A549, 4 h
Protocol: as §1
The cytotoxicity of lin-SB056-1 and (lin-SB056-1)2-K towards A549 and THP-1 cells was evaluated to exclude a possible correlation between reduction in cytokine levels and decrease in cell numbers. To this end, culture supernatants of cells stimulated with LPS in the presence of the peptides were employed to quantify the amount of cytoplasmic LDH released by dead cells. Cells incubated in culture medium alone or in the presence of LPS served as an indication of spontaneous cell death (cell viability controls), while cells treated with a commercial lysis buffer (Pierce LDH cytotoxicity assay kit, Thermo Fisher Scientific) were used as cell death control (100% cell lysis). The enzymatic activity of LDH in cell supernatants was measured using the Pierce LDH cytotoxicity assay kit (Thermo Fisher Scientific) following manufacturer’s instructions. The cytotoxic effect was determined as follows: cytotoxicity (%) = [(LDH activity of A/LDH activity of B) × 100], where A represents peptide-treated or untreated cells (both in the presence and absence of LPS), and B corresponds to the cell lysis control.

[1] = 9.6 μM peptide, vs LPS-stimulated peptide-untreated control, statistically significant, mean of three independent experiments

[KWKIRVRLSA]2-K [(lin-SB056-1)2-K, dendrimeric derivative of lin-SB056-1]
reduction in secretion of IL-1β (THP-1 macrophages; [1]): 80%
reduction in secretion of IL-6 (THP-1 macrophages; [1]): 60%
effect on TNF-α levels (THP-1 macrophages; three independent experiments): a trend in decreasing TNF-α levels, no statistical significance was reached
cell death (LDH release), with LPS (A549 cells; up to 19.25 μM (highest tested), 37 °C, 5% CO2, relative to cell lysis control, at least three independent experiments): less than 5%
toxicity (A549 cells; up to 19.25 μM, LDH release): no detectable toxicity

— article PMC7557804, “The Anti-Microbial Peptide (Lin-SB056-1)2-K Reduces Pro-Inflammatory Cytokine Release through Interaction with Pseudomonas aeruginosa Lipopolysaccharide” (Antibiotics, 2020)
